{
  "source": "patent US20150368642A1",
  "about": "“LNA OLIGONUCLEOTIDE CARBOHYDRATE CONJUGATES” (HOFFMANN-LA ROCHE INC., priority 2013, published 2015)",
  "key": {"ApoB mRNA": {"tested_on": "ApoB mRNA", "test": "Knock down of ApoB mRNA in liver and kidney (qPCR, Example 5)", "format": "in vivo, C57BL6/J mice", "conditions": "mice; for knock down of ApoB mRNA: single iv or sc dose equimolar to 0.25 mg/kg, days 1-7, FIG. 8", "from_the_text": "(§1) Capital letters are LNA nucleosides (such as beta-D-oxy LNA), lower case letters are a DNA nucleoside. Subscript s represents a phosphorothioate internucleoside linkage (region A). LNA cytosines are optionally 5-methyl cytosine. The 2PO linker (region B) is 5′ to the sequence region A, and comprises of two DNA nucleosides linked by phosphodiester linkage, with the internucleoside linkage between the 3′ DNA nucleoside of region A and the 5′ LNA nucleoside of region A also being phosphodiester. A linkage group (Y) may be used to link the conjugate group, when present, to region B, or A (SEQ ID NO 13 and 11). C57BL6/J mice were injected either iv or sc with a single dose saline or 0.25 mg/kg unconjugated LNA-antisense oligonucleotide (SEQ ID N012) or equimolar amounts of LNA antisense oligonucleotides conjugated to GalNAc1, GalNAc2, or cholesterol (2PO) and sacrificed at days 1-7 according to the table below (experimental design).\n(§2) RNA was isolated from liver and kidney and subjected to qPCR with ApoB specific primers and probe to analyse for ApoB mRNA knockdown. The oligonucleotide content was measured using ELISA method and total cholesterol in serum was measured.\nC57BL/6JBom female animals, app. 20 g at arrival, were dosed with 10 ml per kg BW (according to day 0 bodyweight) i.v. or s.c. of the compound formulated in saline or saline alone according to the table above.\nThe animals were anaesthetised with 70% CO2-30% O2 and sacrificed by cervical dislocation according to the above table. One half of the large liver lobe and one kidney were minced and submerged in RNAlater. The other half of liver and the other kidney was frozen and used for tissue analysis. […]\n(§3) For each sample 0.5 μg total RNA was adjusted to (10.8 μl) with RNase free H2O and mixed with 2 μl random decamers (50 μM) and 4 μl dNTP mix (2.5 mM each dNTP) and heated to 70° C. for 3 min after which the samples were rapidly cooled on ice. […] Oligonucleotide content in liver and kidney was measured by sandwich ELISA method."}, "ApoB [1]": {"tested_on": "ApoB", "test": "Total cholesterol in serum (Example 5)", "format": "in vivo, C57BL6/J mice", "conditions": "mice, iv and sc administration, versus SEQ ID NO 12 and 14, FIG. 9", "from_the_text": "as §1, with “C57BL6/J mice were injected either iv or sc with a single dose saline or 0.25 mg/kg unconjugated LNA-antisense oligonucleotide (SEQ ID N012) or equimolar amounts of LNA antisense oligonucleotides conjugated to GalNAc1, GalNAc2, or cholesterol (2PO) and sacrificed at days 1-7 according to the table below (experimental design).” left out\nas §2\nImmediately before sacrifice retro-orbital sinus blood was collected using S-monovette Serum-Gel vials (Sarstedt, Nümbrecht, Germany) for serum preparation. Serum was analyzed for total cholesterol using ABX Pentra Cholesterol CP (Triolab, Brondby, Denmark) according to the manufacturer's instructions."}, "[2]": {"test": "Oligonucleotide content in liver and kidney by sandwich ELISA (Example 5)", "format": "in vivo, C57BL6/J mice", "conditions": "mice", "from_the_text": "as §1, with “C57BL6/J mice were injected either iv or sc with a single dose saline or 0.25 mg/kg unconjugated LNA-antisense oligonucleotide (SEQ ID N012) or equimolar amounts of LNA antisense oligonucleotides conjugated to GalNAc1, GalNAc2, or cholesterol (2PO) and sacrificed at days 1-7 according to the table below (experimental design).” left out\nRNA was isolated from liver and kidney and subjected to qPCR with ApoB specific primers and probe to analyse for ApoB mRNA knockdown. The oligonucleotide content was measured using ELISA method and total cholesterol in serum was measured. […]\nas §3"}, "ApoB [3]": {"tested_on": "ApoB", "test": "Non-human primate study, serum ApoB and LDL-C (ApoB conjugates)", "format": "in vivo, cynomolgus monkeys", "conditions": "Example 7; single i.v. dose; FIG. 16", "experimental": "(§4) The primary objective for this study is to investigate selected lipid markers over 7 weeks after a single slow bolus injection of anti-PCSK9 and anti-ApoB LNA conjugated to GalNac cluster (Conj2a) to cynomolgus monkeys and assess the potential toxicity of compounds in monkey. The compounds which were prepared in sterile saline (0.9%) at an initial concentration of 0.625 and 2.5 mg/ml).\n(§5) Male (PCSK9) or female monkeys (ApoB) monkeys of at least 24 months old are used, and given free access to tap water and 180 g of MWM(E) SQC SHORT expanded diet (Dietex France, SDS, Saint Gratien, France) will be distributed daily per animal. The total quantity of food distributed in each cage will be calculated according to the number of animals in the cage on that day. In addition, fruit or vegetables will be given daily to each animal. The animals will be acclimated to the study conditions for a period of at least 14 days before the beginning of the treatment period. During this period, pre-treatment investigations will be performed. The animals are dosed i.v. at a dose if, for example, 0.25 mg/kg or 1 mg/kg. The dose volume will be 0.4 mL/kg. 2 animals are used per group. After three weeks, the data will be analyzed and a second group of animals using a higher or lower dosing regimen may be initiated—preliminary dose setting is 0.5 mg/kg and 1 mg/kg, or lower than that based on the first data set.\nThe dose formulations will be administered once on Day 1. Animals will be observed for a period of 7 weeks following treatment, and will be released from the study on Day 51. Day 1 corresponds to the first day of the treatment period. Clinical observations and body weight and food intake (per group) will be recorded prior to and during the study.\nThe following parameters will be determined for all surviving animals at the occasions indicated below: • full biochemistry panel (complete list below)—on Days −8, 15 and 50, • liver Safety (ASAT, ALP, ALAT, TBIL and GGT only)—on Days 4, 8, 22 and 36, • lipid profile (Total cholesterol, HDL-C, LDL-C and Triglycerides) and Apo-B only—on Days −1, 4, 8, 22, 29, 36, and 43.\nBlood (approximately 1.0 mL) is taken into lithium heparin tubes (using the ADVIA 1650 blood biochemistry analyzer): Apo-B, sodium, potassium, chloride, calcium, inorganic phosphorus, glucose, HDL-C, LDL-C, urea, creatinine, total bilirubin (TBIL), total cholesterol, triglycerides, alkaline phosphatase (ALP), alanine aminotransferase (ALAT), aspartate aminotransferase (ASAT), creatine kinase, gamma-glutamyl transferase (GGT), lactate dehydrogenase, total protein, albumin, albumin/globulin ratio.\nOther Analysis: WO2011009697 & WO2010142805 provides the methods for the following analysis: qPCR, PCSK9/ApoB mRNA analysis, Other analysis includes PCSK9/ApoB protein ELISA, serum Lp(a) analysis with ELISA (Mercodia No. 10-1106-01), tissue and plasma oligonucleotide analysis (drug content), Extraction of samples, standard- and QC-samples, Oligonucleotide content determination by ELISA. […] There was no indication of hepatotoxicity or nephrotoxicity with the ApoB targeting compounds."}, "PCSK9": {"tested_on": "PCSK9", "test": "Non-human primate study, serum PCSK9 protein ELISA", "format": "in vivo", "conditions": "cynomolgus monkeys, single dose, entire length of the study", "experimental": "as §4\nas §5, with “During this period, pre-treatment investigations will be performed. The animals are dosed i.v. at a dose if, for example, 0.25 mg/kg or 1 mg/kg. The dose volume will be 0.4 mL/kg. 2 animals are used per group.” left out\nThe dose formulations will be administered once on Day 1. […] Clinical observations and body weight and food intake (per group) will be recorded prior to and during the study. […]"}, "miR-122": {"tested_on": "miR-122", "test": "LNA antimiR GalNAc conjugates, miR122 knock down in mice", "format": "in vivo, mouse", "conditions": "for Aldo A and Bckdk mRNA: already in the low dose group (3×0.5 mg/kg), liver; for miR122 knock down in the liver: i.v. days 0, 2 and 4, day 7, compared to parent LNA; for total cholesterol levels: i.v. days 0, 2 and 4, serum pre-dose, day 4 and day 7", "experimental": "(§6) An in vivo mouse study was performed using a total of 9 groups of mice (n=5). Each mouse was dosed i.v. on days 0, 2 and 4 with either 0.5 mg/kg or 2 mg/kg or equimolar doses of the GalNAc conjugated LNA's compared to parent LNA compound. A saline control group was included (see study set up in Tab. 1). Serum samples were taken 4 days pre administration, interim at day 4 and at endpoint day 7. Liver and kidney samples were stored in RNA later. Validation of miR122 knock down of miR122 was done as described in Obad Nat Genet. 2011 Mar. 20; 43(4):371-8 (FIG. 17). The cholesterol level in serum were analyzed as described in Elmen J, et al. LNA-mediated microRNA silencing in non-human primates. Nature. 2008; 452:896-899. (FIG. 18) and mRNA levels of two miR122 down regulated genes (Aldo A and Bckdk) were analyzed using standard QPCR assay techniques (FIG. 19). ALT was measured to assess tolerability of the compounds (FIG. 20)."}, "[4]": {"test": "ALT in final serum (antimiR-122 study)", "format": "in vivo, mouse", "conditions": "mice, final serum day 7", "experimental": "Serum analysis for ALT, AST and cholesterol was performed on the “Cobas INTEGRA 400 plus” clinical chemistry platform (Roche Diagnostics), using 10 μl of serum.\nas §6"}},
  "note": "l = locked nucleic acid (LNA); d = 2'-deoxy (DNA)",
  "data": [
    {"substance": "SEQ ID NO 11: GsCsaststsgsgstsastsTsCsA, GalNAc cluster Conj2a; ApoB (GCATTGGTATTCA; listed as DNA, chemistry not fully specified)", "values": [
      {"measurement": "knock down of ApoB mRNA", "setting": "ApoB mRNA", "value": "knock down of ApoB mRNA better than the unconjugated ApoB LNA"},
      {"measurement": "total cholesterol in serum", "setting": "ApoB [1]", "value": "better effect that the unconjugated and the cholesterol conjugated compounds"},
      {"measurement": "specific activity (activity relative to liver uptake)", "setting": "[2]; iv dosing", "value": "higher specific activity than GalNAc 1 conjugate"},
      {"measurement": "pharmacology (serum ApoB and LDL-C)", "setting": "ApoB [3]", "value": "did not exhibit significant pharmacology"}
    ]},
    {"substance": "SEQ ID NO 13: GsCsaststsgsgstsastsTsCsA, GalNAc cluster Conj1a; ApoB (GCATTGGTATTCA; sugars from the 5' end l2 d8 l3, all phosphorothioate, methylation of C not given here; GalNAc cluster Conj1a conjugated)", "values": [
      {"measurement": "knock down of ApoB mRNA, iv versus sc dosing", "setting": "ApoB mRNA; single dose 0.36 mg/kg", "value": "iv dosing is better than sc dosing"},
      {"measurement": "knock down of ApoB mRNA", "setting": "ApoB mRNA", "value": "knock down of ApoB mRNA better than the unconjugated ApoB LNA"},
      {"measurement": "total cholesterol in serum", "setting": "ApoB [1]", "value": "better effect that the unconjugated and the cholesterol conjugated compounds"},
      {"measurement": "tissue content of the oligonucleotides, uptake in liver", "setting": "[2]; iv and sc, FIG. 10", "value": "very much uptake in liver"}
    ]},
    {"substance": "SEQ ID NO 28: AsAsTsgscstsascsasasasasCsCsCsA, GalNAc cluster Conj2a; PCSK9 (AATGCTACAAAACCCA; listed as DNA, chemistry not fully specified)", "values": [
      {"measurement": "down regulation of PCSK9 (and LDL-C), onset and duration", "setting": "PCSK9", "value": "rapid and consistent down regulation of PCSK9 and LDL-C throughout the duration of the study"}
    ]},
    {"substance": "SEQ ID NO 52: 5′-Conj1a^mCsAs^mCsAs^mCsTs^mCs^mC-3′ (CACACTCC; LNA, 5-methyl C, 5' GalNAc Conj1a, chemistry not fully specified)", "values": [
      {"measurement": "Aldo A and Bckdk mRNA", "setting": "miR-122", "value": "up regulation of Aldo A and Bckdk mRNA"},
      {"measurement": "miR122 knock down in the liver", "setting": "miR-122", "value": "remarkable improvement of miR122 knock down in the liver"},
      {"measurement": "total cholesterol levels", "setting": "miR-122", "value": "decreased total cholesterol levels"},
      {"measurement": "ALT", "setting": "[4]", "value": "increase in ALT"}
    ]},
    {"substance": "SEQ ID NO 54: 5′-Conj1a^mCsAs^mCsAs^mCsTs^mCs^mCca^mCsAs^mCsAs^mCsTs^mCs^mC-3′ (CACACTCCCACACACTCC; LNA, 5-methyl C, ca linker, 5' GalNAc Conj1a, chemistry not fully specified)", "values": [
      {"measurement": "Aldo A and Bckdk mRNA", "setting": "miR-122", "value": "up regulation of Aldo A and Bckdk mRNA"},
      {"measurement": "miR122 knock down in the liver", "setting": "miR-122", "value": "remarkable improvement of miR122 knock down in the liver"},
      {"measurement": "total cholesterol levels", "setting": "miR-122", "value": "decreased total cholesterol levels"},
      {"measurement": "ALT", "setting": "[4]", "value": "tendency to improve"}
    ]}
  ]
}
